# Source: ChEMBL document CHEMBL3885881, “DrugMatrix”
# Species: Rattus norvegicus
# Assay: DrugMatrix - Regimen: Daily Repeat
# Assay type: toxicity, organism-based, Sprague-Dawley
# Set-up: regimen Daily Repeat, gender Male, age 6-8 weeks
# Conditions: in vivo, po, 0 mg/kg, route oral GAVAGE, dose level Control, vehicle 100 % WATER; for ABSOLUTE BASOPHIL / ABSOLUTE EOSINOPHIL / ABSOLUTE LYMPHOCYTE / ABSOLUTE MONOCYTE / ABSOLUTE SEGMENTED NEUTROPHIL / BASOPHIL / EOSINOPHIL / ERYTHROCYTE COUNT / HEMATOCRIT / HEMOGLOBIN / LEUKOCYTE COUNT / LYMPHOCYTE / MEAN CORPUSCULAR HEMOGLOBIN / MEAN CORPUSCULAR VOLUME / MONOCYTE / NEUTROPHIL / NUCLEATED RED BLOOD CELLS / PLATELET COUNT: tissue Blood; for ALANINE AMINOTRANSFERASE / ALBUMIN / ALKALINE PHOSPHATASE / ASPARTATE AMINOTRANSFERASE / BLOOD UREA NITROGEN / CARBON DIOXIDE / CHLORIDE / CHOLESTEROL / CREATINE PHOSPHOKINASE / CREATININE / GLUCOSE / LACTATE DEHYDROGENASE / LIPASE / PHOSPHORUS / POTASSIUM / SODIUM / TOTAL BILIRUBIN / TOTAL PROTEIN / URIC ACID: tissue Plasma
structure (smiles),measurement,setting,value
CC(C)(C)CC(C)(C)c1ccc(OCCOCC[N+](C)(C)Cc2ccccc2)cc1.[Cl-] [BENZETHONIUM CHLORIDE],ABSOLUTE BASOPHIL,"72 h, time 3 day",0 CELLS/uL
same,ABSOLUTE EOSINOPHIL,"72 h, time 3 day",20.17 CELLS/uL
same,ABSOLUTE LYMPHOCYTE,"72 h, time 3 day",12371.67 CELLS/uL
same,ABSOLUTE MONOCYTE,"72 h, time 3 day",166 CELLS/uL
same,ABSOLUTE SEGMENTED NEUTROPHIL,"72 h, time 3 day",1292.17 CELLS/uL
same,BASOPHIL,"72 h, time 3 day",0%
same,EOSINOPHIL,"72 h, time 3 day",0.17%
same,ERYTHROCYTE COUNT,"72 h, time 3 day",5.46 x10E6/uL
same,HEMATOCRIT,"72 h, time 3 day",34.38%
same,HEMOGLOBIN,"72 h, time 3 day",13.32 G/DL
same,LEUKOCYTE COUNT,"72 h, time 3 day",13.85 x10E3/uL
same,LYMPHOCYTE,"72 h, time 3 day",88.5%
same,MEAN CORPUSCULAR HEMOGLOBIN,"72 h, time 3 day",24.42 pg
same,MEAN CORPUSCULAR VOLUME,"72 h, time 3 day",63.07 fL
same,MONOCYTE,"72 h, time 3 day",1.17%
same,NEUTROPHIL,"72 h, time 3 day",10.17%
same,NUCLEATED RED BLOOD CELLS,"72 h, time 3 day",0.17 /100WBC
same,PLATELET COUNT,"72 h, time 3 day",1193.5 x10E3/uL
same,ALANINE AMINOTRANSFERASE,"72 h, time 3 day",54.5 u/L
same,ALBUMIN,"72 h, time 3 day",4.02 G/DL
same,ALKALINE PHOSPHATASE,"72 h, time 3 day",346.5 u/L
same,ASPARTATE AMINOTRANSFERASE,"72 h, time 3 day",103.17 u/L
same,BLOOD UREA NITROGEN,"72 h, time 3 day",16.5 mg/dL
same,CARBON DIOXIDE,"72 h, time 3 day",29.83 mmol/L
same,CHLORIDE,"72 h, time 3 day",99.5 MEQ/L
same,CHOLESTEROL,"72 h, time 3 day",72.5 mg/dL
same,CREATINE PHOSPHOKINASE,"72 h, time 3 day",532.5 u/L
same,CREATININE,"72 h, time 3 day",0.18 mg/dL
same,GLUCOSE,"72 h, time 3 day",168.5 mg/dL
same,LACTATE DEHYDROGENASE,"72 h, time 3 day",536.5 u/L
same,LIPASE,"72 h, time 3 day",11.17 u/L
same,PHOSPHORUS,"72 h, time 3 day",11.48 mg/dL
same,POTASSIUM,"72 h, time 3 day",5.95 MEQ/L
same,SODIUM,"72 h, time 3 day",140.5 MEQ/L
same,TOTAL BILIRUBIN,"72 h, time 3 day",0.18 mg/dL
same,TOTAL PROTEIN,"72 h, time 3 day",5.77 G/DL
same,URIC ACID,"72 h, time 3 day",1.42 mg/dL
same,ABSOLUTE BASOPHIL,"120 h, time 5 day",0 CELLS/uL
same,ABSOLUTE EOSINOPHIL,"120 h, time 5 day",22.83 CELLS/uL
same,ABSOLUTE LYMPHOCYTE,"120 h, time 5 day",12202.83 CELLS/uL
same,ABSOLUTE MONOCYTE,"120 h, time 5 day",158 CELLS/uL
same,ABSOLUTE SEGMENTED NEUTROPHIL,"120 h, time 5 day",1283 CELLS/uL
same,BASOPHIL,"120 h, time 5 day",0%
same,EOSINOPHIL,"120 h, time 5 day",0.17%
same,ERYTHROCYTE COUNT,"120 h, time 5 day",5.88 x10E6/uL
same,HEMATOCRIT,"120 h, time 5 day",36.62%
same,HEMOGLOBIN,"120 h, time 5 day",14.07 G/DL
same,LEUKOCYTE COUNT,"120 h, time 5 day",13.67 x10E3/uL
same,LYMPHOCYTE,"120 h, time 5 day",89.5%
same,MEAN CORPUSCULAR HEMOGLOBIN,"120 h, time 5 day",23.95 pg
same,MEAN CORPUSCULAR VOLUME,"120 h, time 5 day",62.28 fL
same,MONOCYTE,"120 h, time 5 day",1.17%
same,NEUTROPHIL,"120 h, time 5 day",9.17%
same,NUCLEATED RED BLOOD CELLS,"120 h, time 5 day",0.17 /100WBC
same,PLATELET COUNT,"120 h, time 5 day",1198 x10E3/uL
same,ALANINE AMINOTRANSFERASE,"120 h, time 5 day",51 u/L
same,ALBUMIN,"120 h, time 5 day",4.3 G/DL
same,ALKALINE PHOSPHATASE,"120 h, time 5 day",343 u/L
same,ASPARTATE AMINOTRANSFERASE,"120 h, time 5 day",89.83 u/L
same,BLOOD UREA NITROGEN,"120 h, time 5 day",17.67 mg/dL
same,CARBON DIOXIDE,"120 h, time 5 day",27.17 mmol/L
same,CHLORIDE,"120 h, time 5 day",98.33 MEQ/L
same,CHOLESTEROL,"120 h, time 5 day",82.5 mg/dL
same,CREATINE PHOSPHOKINASE,"120 h, time 5 day",533.33 u/L
same,CREATININE,"120 h, time 5 day",0.18 mg/dL
same,GLUCOSE,"120 h, time 5 day",152.67 mg/dL
same,LACTATE DEHYDROGENASE,"120 h, time 5 day",220.33 u/L
same,LIPASE,"120 h, time 5 day",11.5 u/L
same,PHOSPHORUS,"120 h, time 5 day",11.25 mg/dL
same,POTASSIUM,"120 h, time 5 day",6.29 MEQ/L
same,SODIUM,"120 h, time 5 day",140.53 MEQ/L
same,TOTAL BILIRUBIN,"120 h, time 5 day",0.22 mg/dL
same,TOTAL PROTEIN,"120 h, time 5 day",6.12 G/DL
same,URIC ACID,"120 h, time 5 day",1.42 mg/dL
